Source: patent publication US8044204B2, “8-methoxy-9H-isothiazolo[5,4-b]quinoline-3,4-diones and related compounds as anti-infective agents” (Achillion Pharmaceuticals, Inc., priority 2005, dated 2011)
In brackets after ≈: the same amount, converted by molar mass. Structures can show the parent of a compound that is named as a salt. Where two headings read alike, the source gives them in different places.

How the values were obtained:
Assay type in all cases: cell-based
[1] = test system: S. aureus ATCC 29213; assay: Minimum Inhibitory Concentration (MIC) assay, S. aureus; details: Staphylococcus aureus, ATCC29213; broth microdilution; read-out: MIC against S. Aureus
Procedure, shortened: (§1)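 NCCLS broth microdilution in Mueller-Hinton II broth, two-fold dilutions giving final 0.125–128 μg/mL, inoculum ~1×10^6 cfu/mL. Incubated in ambient air at 37 °C for 18–24 h. MIC read as lowest concentration with no visible growth.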

[2] = test system: E. coli ATCC 25922; assay: Minimum Inhibitory Concentration (MIC) assay, E. coli; details: Escherichia coli, ATCC25922; broth microdilution; read-out: MIC against E. coli
Procedure, shortened: as §1

[3] = test system: MRSA strain ATCC 700699; assay: Minimum Inhibitory Concentration (MIC) assay, Methicillin Resistant S. Aureus; details: Staphylococcus aureus
Text: It has been unexpectedly discovered that substitution of compounds of Formula I and Formula II with a methoxy substituent at the R8 position increases the anti-microbial activity of the compound against Methicillin resistant Staphylococcus Aureus bacteria while at the same time decreasing the cellular toxicity of the compound. The simultaneous increase in compound activity and decrease in compound toxicity provides a greater therapeutic range for compounds of Formula I and Formula II in which R8 is methoxy; i.e. the range of doses of such compounds that will produce beneficial effects without harmful side effects is increased. […] Therapeutic range is determined using a standard assay of cytotoxicity such as the Alamar blue assay provided in Example 10.
The antimicrobial activity of the compounds of the invention may be evaluated by a number of methods, including the following visual minimum inhibitory concentration (MIC) assay. This assay determines the minimum concentration of compound required to inhibit growth of a bacterial strain.
Minimum Inhibitory Concentration (MIC) Assay
Whole-cell antibacterial activity is determined by broth microdilution using conditions recommended by the NCCLS (see National Committee for Clinical Laboratory Standards. 2001. Performance standards for antimicrobial susceptibility testing: 11th informational supplement. Vol. 21, no. 1, M100-S11. National Committee for Clinical Laboratory Standards, Wayne, Pa.). Test compounds are dissolved in DMSO and diluted 1:50 in Mueller-Hinton II broth (Becton-Dickinson) to produce a 256 μg/ml stock solution. In a 96-well microtiter plate, the compound solution is serially two-fold diluted in Mueller-Hinton II broth. After the compounds are diluted, a 50 μl aliquot of the test organism (˜1×10^6 cfu/mL) is added to each well of the microtiter plate. The final test concentrations ranges from 0.125-128 μg/mL. Inoculated plates are incubated in ambient air at 37° C. for 18 to 24 hours. The organisms selected for testing included laboratory strains S. aureus ATCC 29213 and E. coli ATCC 25922 (strains purchased from American Type Culture Collection, Manassas, Va.), S. aureus FQR700699, and Paeruginosa 27853. The minimum inhibitory concentration (MIC) is determined as the lowest concentration of compound that inhibited visible growth of the test organism.

[4] = Cell viability staining with Alamar Blue (cytotoxicity CC50), Hep2; details: human
Procedure: To determine whether the microcidal effect observed against S. aureus and E. coli is specific to bacterial cells, compounds are screened for cell viability effects on several human cell types.
Optimal cell density is first determined by plating cells in a 96-well plate standard sterile tissue culture plates in 100 μl media, 10% FBS at six cell densities from 500 cells/well to 15,000 cells/well. A cell free well containing only media is used as a control. Cells are incubated at 37° C. in a 5% CO2 incubator for 24 hours. 10% culture volume (10 ul) of Alamar Blue (Biosource, DAL1100, 100 mL) is then added. Cells are incubated at 37° C. in a 5% CO2 incubator and read in a Victor V plate reader, 544 nm excitation, 590 nm emission, at 3, 4, and 24 hours after the addition of Alamar Blue. The cell number vs. change in fluorescence is plotted to determine linearity of signal vs. cell number. The optimal density varies between 500-15,000 cells/well depending on the specific cell type. The optimal density is selected based on the highest number of cells that is still in the linear response range.
Determination of Compound Cytotoxicity
Cells are plated at optimal cell density in a standard sterile tissue culture 96 well plate, and incubated at 37° C. O/N in a 5% CO2 incubator. 12 to 48 hours post-plating media is removed. The cells are washed 1 or 2 times with 1×PBS and replaced with fresh media containing the test compound in 1% DMSO. 24 to 72 hours after addition of compound, the media is removed, and the cells washed 1 to 2 times with 1×PBS. Fresh media containing 1/10 volume of Alamar Blue is then added. Plates are incubated 4 hours at 37° C. in a 5% CO2 incubator and read in a Victor V plate reader, 544 nm excitation, 590 nm emission.
Compounds are diluted to 20 micromolar in 1% DMSO and media and screened in duplicate to obtain single concentration cytotoxicity data. Eight concentration points from 0.78 micromolar to 100 micromolar, run in duplicate, are used to determine cyclotoxicity CC50 values. Cells with 1% DMSO and media are used as a negative control, compounds having a known CC50 against a particular cell type are used as positive controls.
The change in fluorescence vs. concentration of test compound is plotted to determine the cytotoxicity of the compound.
Sample media conditions, optimal plating densities, and positive control compounds for two cell types screened are presented in Table III.

[5] = in vitro; details: Chinese hamster
[6] = R6 = F, R8 = Methoxy compounds, MRSA ATCC 700699, read-out: MRSA MIC
[7] = Hep2 cells (ATCC CCL-23), R6 = F, R8 = Methoxy compounds, Hep2 ATCC CCL-23, read-out: hep2 CC50
[8] = Hep2 cells (ATCC CCL-23), R6 = F, R8 = H compounds, Hep2 ATCC CCL-23, read-out: hep2 CC50
[9] = broth microdilution, read-out: MIC against Methicillin Resistant S. Aureus
[10] = R6 = F, R8 = H compounds, MRSA ATCC 700699, read-out: MRSA MIC

Compound	MIC [1] [µg/mL]	MIC [2] [µg/mL]	MIC [3, 6] [µg/mL]	MIC [3, 9] [µg/mL]	MIC [3, 10] [µg/mL]	CC50 ([4]; R6 = F, R8 = Methoxy compounds, Hep2 ATCC CCL-23, read-out: hep2 CC50) [µM]	MIC ([3]; read-out: MRSA MIC) [µg/mL]	CC50 [4, 7] [µM]	CC50 [4, 8] [µM]	CC50 [4] [µM]	CC50 [5] [µM]
COc1c(N2CCNCC2)c(F)cc2c(=O)c3c(=O)[nH]sc3n(C3CC3)c12 [Compound 38, 9-cyclopropyl-6-fluoro-8-methoxy-7-(piperazin-1-yl)isothia-zolo[5,4-b]quinoline-3,4(2H,9H)-dione]	≤ 1	≤ 1	4.8 (≈ 12.3 µM)			27					
COc1c(N2CC3CCCNC3C2)c(F)cc2c(=O)c3c(=O)[nH]sc3n(C3CC3)c12 (stereo not drawn) [Compound 45, 9-cyclopropyl-6-fluoro-8-methoxy-7-(octahydro-pyrrolo[3,4-b]pyridin-6-yl)isothia-zolo[5,4-b]quinoline-3,4(2H,9H)-dione, hydrochloride]	≤ 1	≤ 1					2	93			
O=c1[nH]sc2c1c(=O)c1cc(F)c(N3CC4CCCNC4C3)cc1n2C1CC1 (stereo not drawn) [Compound 46, 9-cyclopropyl-6-fluoro-7-(octahydro-pyrrolo[3,4-b]pyridin-6-yl)isothia-zolo[5,4-b]quinoline-3,4(2H,9H)-dione, hydrochloride]	≤ 1	≤ 1					4		4.7		
CC(C)(N)[C@@H]1CCN(c2cc3c(cc2F)c(=O)c2c(=O)[nH]sc2n3C2CC2)C1 [Compound 52, (R)-7-(3-(2-aminopropan-2-yl)pyrrolidin-1-yl)-9-cyclopropyl-6-fluoroisothia-zolo[5,4-b]quinoline-3,4(2H,9H)-dione, hydrochloride]	≤ 1	≤ 1		≤ 1			0.38		0.55		
NC[C@@H]1CCN(c2cc3c(cc2F)c(=O)c2c(=O)[nH]sc2n3C2CC2)C1 [Compound 64, (S)-7-(3-(aminomethyl)-pyrrolidin-1-yl)-9-cyclopropyl-6-fluoroiso-thiazolo[5,4-b]quinoline-3,4(2H,9H)-dione]	≤ 1				1 (≈ 2.67 µM)				3.1		
NC[C@H]1CCN(c2cc3c(cc2F)c(=O)c2c(=O)[nH]sc2n3C2CC2)C1 [Compound 68, (R)-7-(3-(aminomethyl)-pyrrolidin-1-yl)-9-cyclopropyl-6-fluoroiso-thiazolo[5,4-b]quinoline-3,4(2H,9H)-dione]	≤ 1	≤ 1			1 (≈ 2.67 µM)				2.3		
CNC(C)(C)[C@@H]1CCN(c2cc3c(cc2F)c(=O)c2c(=O)[nH]sc2n3C2CC2)C1 [Compound 80, (R)-9-cyclo-propyl-6-fluoro-7-(3-(2-(methylamino)propan-2-yl)-pyrrolidin-1-yl)isothia-zolo[5,4-b]quinoline-3,4(2H,9H)-dione]	≤ 1	≤ 1			2 (≈ 4.8 µM)				0.57		
CC(C)(C)c1ccc(C(O)CCCN2CCC(C(O)(c3ccccc3)c3ccccc3)CC2)cc1 (stereo not drawn) [Terfenadine, reference compound]										3 to 5	4.3 to 6.5

Continued, in another order:

MIC [1] [µg/mL]	MIC [2] [µg/mL]	MIC [3, 6] [µg/mL]	MIC [3, 9] [µg/mL]	MIC [3, 10] [µg/mL]	Compound	CC50 ([4]; R6 = F, R8 = Methoxy compounds, Hep2 ATCC CCL-23, read-out: hep2 CC50) [µM]	MIC ([3]; read-out: MRSA MIC) [µg/mL]	CC50 [4, 7] [µM]	CC50 [4, 8] [µM]	CC50 [4] [µM]	CC50 [5] [µM]
≤ 1	≤ 1	4 (≈ 9.56 µM)			COc1c(N2CCC(N(C)C)C2)c(F)cc2c(=O)c3c(=O)[nH]sc3n(C3CC3)c12 (stereo not drawn) [Compound 49, 9-cyclopropyl-7-(3-(dimethyl-amino)pyrrolidin-1-yl)-6-fluoro-8-methoxy-isothiazolo[5,4-b]quinoline-3,4(2H,9H)-dione]			68			
≤ 1	≤ 1	0.1 (≈ 0.231 µM)	≤ 1		COc1c(N2CC[C@@H](C(C)(C)N)C2)c(F)cc2c(=O)c3c(=O)[nH]sc3n(C3CC3)c12 [Compound 53, (R)-7-(3-(2-aminopropan-2-yl)pyrrolidin-1-yl)-9-cyclopropyl-6-fluoro-8-methoxyiso-thiazolo[5,4-b]quinoline-3,4(2H,9H)-dione]			8.5			
≤ 1	≤ 1	1.5 (≈ 3.47 µM)			COc1c(N2CC[C@H](C(C)(C)N)C2)c(F)cc2c(=O)c3c(=O)[nH]sc3n(C3CC3)c12 [Compound 58, (S)-7-(3-(2-aminopropan-2-yl)pyrrolidin-1-yl)-9-cyclopropyl-6-fluoro-8-methoxyiso-thiazolo[5,4-b]quinoline-3,4(2H,9H)-dione]			61			
≤ 1				16 (≈ 39.8 µM)	CC(C)(N)[C@H]1CCN(c2cc3c(cc2F)c(=O)c2c(=O)[nH]sc2n3C2CC2)C1 [Compound 61, (S)-7-(3-(2-aminopropan-2-yl)pyrrolidin-1-yl)-9-cyclopropyl-6-fluoroiso-thiazolo[5,4-b]quinoline-3,4(2H,9H)-dione]				6.1		
≤ 1	≤ 1	0.42 (≈ 1.04 µM)	≤ 1		COc1c(N2CC[C@@H](CN)C2)c(F)cc2c(=O)c3c(=O)[nH]sc3n(C3CC3)c12 [Compound 63, (S)-7-(3-(aminomethyl)-pyrrolidin-1-yl)-9-cyclopropyl-6-fluoro-8-methoxyiso-thiazolo[5,4-b]quinoline-3,4(2H,9H)-dione]			11			
≤ 1	≤ 1	0.25 (≈ 0.618 µM)	≤ 1		COc1c(N2CC[C@H](CN)C2)c(F)cc2c(=O)c3c(=O)[nH]sc3n(C3CC3)c12 [Compound 67, (R)-7-(3-(aminomethyl)-pyrrolidin-1-yl)-9-cyclopropyl-6-fluoro-8-methoxyiso-thiazolo[5,4-b]quinoline-3,4(2H,9H)-dione]			11			
≤ 1	≤ 1	0.13 (≈ 0.291 µM)	≤ 1		CNC(C)(C)[C@@H]1CCN(c2c(F)cc3c(=O)c4c(=O)[nH]sc4n(C4CC4)c3c2OC)C1 [Compound 76, (R)-9-cyclo-propyl-6-fluoro-8-methoxy-7-(3-(2-(methyl-amino)propan-2-yl)pyrrolidin-1-yl)isothia-zolo[5,4-b]quinoline-3,4(2H,9H)-dione]			27			
				2 (≈ 5.15 µM)	CN(C)C1CCN(c2cc3c(cc2F)c(=O)c2c(=O)[nH]sc2n3C2CC2)C1 (stereo not drawn) [Compound 114, 9-cyclo-propyl-7-(3-(dimethyl-amino)pyrrolidin-1-yl)-6-fluoroiso-thiazolo[5,4-b]quinoline-3,4(2H,9H)-dione]				3		
